From PubChem BioAssay AID1159565 (GlaxoSmithKline (GSK), 2015)
Activity calls are given as the source filed them. No rule for the calls is given here.

System: T. cruzi-infected H9C2 cardiomyocytes, high-content imaging
Experiment: anti-T. cruzi activity in infected cardiomyocytes – imaging, H9C2 host cardiomyocytes, host toxicity (AID 1159565);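 also: infected cells incubated 72 h after plating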
[1] = measured here: H9C2 host cell toxicity
[2] = measured here: amastigotes per cell

COc1ccc(C(C)N(C)c2ncc3c(N)nc(N)nc3n2)cc1F (stereo not drawn)
IC50: 200 nM | IC50 [1]: 25000 nM | IC50 [2]: 63 nM

Nc1nc(-c2ccccc2)cc(-c2nc3ncccc3[nH]2)n1
IC50: 2000 nM | IC50 [1]: 13000 nM | IC50 [2]: 1600 nM

CS(=O)(=O)NC1CCC(Oc2cc3cnccc3cc2-c2ccsc2)CC1 (stereo not drawn)
IC50: 160 nM | IC50 [1]: > 50000 nM | IC50 [2]: 100 nM

O=C1CN(C(=O)c2cccc(Nc3ncc(-c4ccc5c(c4)OCO5)cn3)c2)CCN1
IC50: 790 nM | IC50 [1]: 63000 nM | IC50 [2]: 500 nM

Cc1cc2ncn(-c3ccc([N+](=O)[O-])cc3C#N)c2cc1C
IC50: 2000 nM | IC50 [1]: > 50000 nM | IC50 [2]: 790 nM

CCC(CC)C(=O)Nc1cccc(C(=O)Nc2nnc(C3CCCCC3)s2)c1
IC50: 25000 nM | IC50 [1]: > 50000 nM | IC50 [2]: 16000 nM

COC(=O)c1ccc(-c2cnc3ccc(NCc4ccccn4)nn23)cc1
IC50: 7900 nM | IC50 [1]: > 50000 nM | IC50 [2]: 5000 nM

NC(=O)c1cc(NC(=O)c2ccccc2COc2ccccc2)ccc1Cl
IC50: 32000 nM | IC50 [1]: > 50000 nM | IC50 [2]: 25000 nM

O=C(NCc1nnc2n1CCCCC2)c1ccc(-c2ccc(F)cc2)o1
IC50: 1600 nM | IC50 [1]: > 50000 nM | IC50 [2]: 1000 nM

Cc1c(C(C)NC(=O)Nc2cccc(Cl)c2)sc2ncnn12 (stereo not drawn)
IC50: 200 nM | IC50 [1]: > 50000 nM | IC50 [2]: 160 nM

CC(C)(C)CC(=O)NCCc1csc(-c2ccc(F)cc2)n1
IC50: 1000 nM | IC50 [1]: > 50000 nM | IC50 [2]: 790 nM

CNC(=O)C1Cc2ccccc2N1C(=O)Cc1ccc(F)cc1 (stereo not drawn)
IC50: > 50000 nM (inactive) | IC50 [1]: > 50000 nM | IC50 [2]: > 50000 nM

Nc1ncnc2c1ncn2[C@@H]1O[C@H](CO)C[C@H]1O
IC50: 2000 nM | IC50 [1]: 5000 nM | IC50 [2]: 1300 nM

CN(CC1CCCO1)S(=O)(=O)c1ccc(C(=O)Nc2nc(-c3ccccn3)cs2)cc1 (stereo not drawn)
IC50: 2000 nM | IC50 [1]: 20000 nM | IC50 [2]: 1300 nM

CNS(=O)(=O)c1ccccc1Nc1nc(Nc2ccnn2C)ncc1Cl
IC50: 1000 nM | IC50 [1]: 160 nM | IC50 [2]: 630 nM

CN(Cc1cc2ccccc2s1)c1ncc2c(N)nc(N)nc2n1
IC50: 3200 nM | IC50 [1]: 20000 nM | IC50 [2]: 790 nM

Cn1nc([N+](=O)[O-])nc1Oc1ccc(C(=O)c2ccccc2)cc1
IC50: 320 nM | IC50 [1]: > 50000 nM | IC50 [2]: 130 nM

CNC(=O)C1Cc2ccccc2N1C(=O)COc1cccc(OC)c1 (stereo not drawn)
IC50: > 50000 nM (inactive) | IC50 [1]: > 50000 nM | IC50 [2]: > 50000 nM

c1ccc(-c2nc(NC3CCCC3)c3ccccc3n2)nc1
IC50: 790 nM | IC50 [1]: 500 nM | IC50 [2]: 2000 nM

O=C(CN1CCN(S(=O)(=O)c2cccc([N+](=O)[O-])c2)CC1)Nc1ccc(Oc2ccccc2)cc1
IC50: 2500 nM | IC50 [1]: > 50000 nM | IC50 [2]: 1300 nM

COc1ccc(NS(=O)(=O)c2cccc(NC(=O)c3cc(F)cc(F)c3)c2)cc1
IC50: 500 nM | IC50 [1]: > 50000 nM | IC50 [2]: 500 nM

CN(C)c1ccc(N)cc1CN(CC1CCCO1)S(C)(=O)=O (stereo not drawn)
IC50: > 50000 nM (inactive) | IC50 [1]: > 50000 nM | IC50 [2]: > 50000 nM

CN(C)S(=O)(=O)c1cccc(C(=O)Nc2nc(-c3ccccn3)cs2)c1
IC50: 1600 nM | IC50 [1]: 7900 nM | IC50 [2]: 1000 nM

O=C1OCc2ccc(Nc3nccc(-c4cnn5ncccc45)n3)cc21
IC50: 63 nM | IC50 [1]: 25 nM | IC50 [2]: 32 nM

CCN(CC)S(=O)(=O)c1ccc(C)c(NC(=O)c2cc(Cl)c3c(c2)OCO3)c1
IC50: > 50000 nM (inactive) | IC50 [1]: 25000 nM | IC50 [2]: > 50000 nM

CC(=Cc1ccccc1)CN1CCC(=O)N(Cc2cccnc2)CC1
IC50: 500 nM | IC50 [1]: > 50000 nM | IC50 [2]: 500 nM

Cc1ccc(S(C)(=O)=O)cc1Nc1nccc(-c2sc(N)nc2-c2ccccc2)n1
IC50: 130 nM | IC50 [1]: 5000 nM | IC50 [2]: 79 nM

COc1cnc2ccc(=O)n(CCN3CCC(NC/C=C/c4cc(F)ccc4F)CC3)c2c1
IC50: 20 nM | IC50 [1]: 16000 nM | IC50 [2]: 10 nM

COc1ccccc1-n1c(SCC(=O)Nc2ccc3c(c2)OCO3)nc2c(c1=O)SCC2
IC50: 16000 nM | IC50 [1]: > 50000 nM | IC50 [2]: 7900 nM

COc1ccc2nc(N(Cc3cccnc3)C(=O)C3CCC3)sc2c1
IC50: 130 nM | IC50 [1]: > 50000 nM | IC50 [2]: 100 nM

COc1ncc(-c2ccc3ncnc(N4CCOCC4)c3c2)cc1NS(C)(=O)=O
IC50: 6300 nM | IC50 [1]: 1600 nM | IC50 [2]: 2500 nM

CS(=O)(=O)NC1CCC(Nc2ncc(Br)c(Nc3ccccc3C(N)=O)n2)CC1 (stereo not drawn)
IC50: 5000 nM | IC50 [1]: 500 nM | IC50 [2]: 2000 nM

Cc1ccc(Nc2nc(-c3ccccn3)cc(N3CCCC(O)C3)n2)cc1 (stereo not drawn)
IC50: 6300 nM | IC50 [1]: 500 nM | IC50 [2]: 2500 nM

CCN(CC)c1ncc(C(=O)c2ccc([N+](=O)[O-])o2)s1
IC50: 13000 nM | IC50 [1]: 5000 nM | IC50 [2]: 7900 nM

Cc1cc(Nc2cc(C3CC3)[nH]n2)nc(N2CCCC2)n1
IC50: 100 nM | IC50 [1]: 250 nM | IC50 [2]: 79 nM

O=C(CC1(O)C(=O)N(Cc2cccs2)c2ccc(Br)cc21)c1cccnc1 (stereo not drawn)
IC50: 40000 nM | IC50 [1]: 4000 nM | IC50 [2]: 25000 nM

COc1ccc(-c2cnc(NC(=O)c3ccc(F)cc3)n2C)cc1
IC50: 5000 nM | IC50 [1]: > 50000 nM | IC50 [2]: 2000 nM

Cc1ccc2c(c1)SC(C(=O)Nc1n[nH]c(-c3ccccn3)n1)C2 (stereo not drawn)
IC50: 7900 nM | IC50 [1]: > 50000 nM | IC50 [2]: 6300 nM

CN(C)S(=O)(=O)c1ccc(Cl)c(C(=O)Nc2nc(-c3ccccn3)cs2)c1
IC50: 2000 nM | IC50 [1]: 6300 nM | IC50 [2]: 1300 nM

Cc1cc(Oc2cc(Cl)c(Cl)cc2Cl)n2ncnc2n1
IC50: 25000 nM | IC50 [1]: 7900 nM | IC50 [2]: 10000 nM

O=C(Nc1ccc(-c2nc3ccccc3c(=O)[nH]2)cc1)c1cccs1
IC50: > 50000 nM (inactive) | IC50 [1]: > 50000 nM | IC50 [2]: > 50000 nM

Cn1cc(CN2CCN(c3ccc4c(c3)CCN(C(=O)[C@H]3C[C@@H]3c3ccccc3)CC4)CC2)cn1
IC50: 3200 nM | IC50 [1]: 32000 nM | IC50 [2]: 790 nM

O=C(NCCc1csc(-c2cccc(F)c2)n1)c1ccco1
IC50: 1600 nM | IC50 [1]: 10000 nM | IC50 [2]: 1300 nM

O=C(CCCNC(=O)c1ccc(Cl)cc1)Nc1nc(-c2ccccn2)cs1
IC50: 25000 nM | IC50 [1]: 25000 nM | IC50 [2]: 10000 nM

COc1ccc2nccc([C@H](O)CN3CC[C@H](NC(=O)c4ccc(Br)cc4)[C@@H](O)C3)c2n1
IC50: 1600 nM | IC50 [1]: 2000 nM | IC50 [2]: 160 nM

CC(c1cc(Cl)cc(Cl)c1)N(C)c1ncc2c(N)nc(N)nc2n1 (stereo not drawn)
IC50: 2 nM | IC50 [1]: 7900 nM | IC50 [2]: 1 nM

CN1C(=O)c2ccccc2Sc2ccc(NC(=O)NCc3ccco3)cc21
IC50: 13000 nM | IC50 [1]: 25000 nM | IC50 [2]: 6300 nM

Cc1[nH]nc2c1C(c1ccc(OCc3ccccc3F)cc1)SCC(=O)N2 (stereo not drawn)
IC50: 3200 nM | IC50 [1]: > 50000 nM | IC50 [2]: 790 nM

CCOc1ccc(N(C)S(=O)(=O)c2ccc3[nH]cc(C(=O)NC4CCCC4)c(=O)c3c2)cc1
IC50: > 50000 nM (inactive) | IC50 [1]: > 50000 nM | IC50 [2]: 6300 nM

O=c1[nH]ccc2ccc(-c3ccncc3)cc12
IC50: 250 nM | IC50 [1]: > 50000 nM | IC50 [2]: 250 nM

C=CCN(Cc1cccs1)C(=O)CSc1nnc(-c2ccc3c(c2)OCO3)o1
IC50: 630 nM | IC50 [1]: > 50000 nM | IC50 [2]: 500 nM
